Laboratory results taken from ChEMBL document CHEMBL2157998, “Synthesis and biological evaluation of new phenothiazine derivatives bearing a pyrazole unit as protein farnesyltransferase inhibitors” (Bioorg Med Chem Lett, 2012).
Activity calls are given as the source filed them. No cut-off for these calls is given here.

Tests used:
[1] = biological target: Protein farnesyltransferase (Homo sapiens, UniProt P49354+P49356); assay: Inhibition of recombinant human FTase using dansyl-GCVLS as substrate at 100 uM after 15 mins by fluorimetric analysis; assay type: protein-complex assay
[2] = test system: CCRF-CEM; assay: Growth inhibition of human CCRF-CEM cells at 10 uM after 48 hrs by single dose SRB assay; assay type: functional; details: for inhibition of growth at 10 µM: read-out: GI
[3] = test system: HL-60(TB); assay: Growth inhibition of human HL-60(TB) cells at 10 uM after 48 hrs by single dose SRB assay; assay type: functional; details: for inhibition of growth at 10 µM: HL-60, 48 h, read-out: GI
[4] = test system: MOLT-4; assay: Growth inhibition of human MOLT4 cells at 10 uM after 48 hrs by single dose SRB assay; assay type: functional; details: for inhibition of growth at 10 µM: MOLT-4, 48 h, read-out: GI
[5] = test system: RPMI-8226; assay: Growth inhibition of human RPMI8226 cells at 10 uM after 48 hrs by single dose SRB assay; assay type: functional
[6] = test system: SF-295; assay: Growth inhibition of human SF295 cells at 10 uM after 48 hrs by single dose SRB assay; assay type: functional
[7] = test system: SNB-19; assay: Growth inhibition of human SNB19 cells at 10 uM after 48 hrs by single dose SRB assay; assay type: functional
[8] = test system: U-251; assay: Growth inhibition of human U251 cells at 10 uM after 48 hrs by single dose SRB assay; assay type: functional; details: for inhibition of growth at 10 µM: U-251, 48 h, read-out: GI
[9] = (§1) Growth inhibition of human […] cells at 10 uM after 48 hrs by single dose SRB assay; assay type: functional; details: read-out: GI
[10] = test system: HCT-15; assay: Growth inhibition of human HCT15 cells at 10 uM after 48 hrs by single dose SRB assay; assay type: functional; details: for inhibition of growth at 10 µM: HCT-15, 48 h, read-out: GI
[11] = test system: HT-29; assay: Growth inhibition of human HT-29 cells at 10 uM after 48 hrs by single dose SRB assay; assay type: functional
[12] = test system: SW-620; assay: Growth inhibition of human SW620 cells at 10 uM after 48 hrs by single dose SRB assay; assay type: functional
[13] = test system: EKVX; assay: Growth inhibition of human EKVX cells at 10 uM after 48 hrs by single dose SRB assay; assay type: functional; details: for inhibition of growth at 10 µM: read-out: GI
[14] = test system: NCI-H226; assay: Growth inhibition of human NCI-H226 cells at 10 uM after 48 hrs by single dose SRB assay; assay type: functional; details: for inhibition of growth at 10 µM: NCI-H226, 48 h, read-out: GI
[15] = test system: HOP-92; assay: Growth inhibition of human HOP92 cells at 10 uM after 48 hrs by single dose SRB assay; assay type: functional; details: for inhibition of growth at 10 µM: HOP-92, 48 h, read-out: GI
[16] = test system: NCI-H522; assay: Growth inhibition of human NCI-H522 cells at 10 uM after 48 hrs by single dose SRB assay; assay type: functional; details: for inhibition of growth at 10 µM: NCI-H522, 48 h, read-out: GI
[17] = test system: LOX IMVI; assay: Growth inhibition of human LOXIMVI cells at 10 uM after 48 hrs by single dose SRB assay; assay type: functional
[18] = test system: SK-MEL-5; assay: Growth inhibition of human SK-MEL-5 cells at 10 uM after 48 hrs by single dose SRB assay; assay type: functional
[19] = test system: UACC-62; assay: Growth inhibition of human UACC62 cells at 10 uM after 48 hrs by single dose SRB assay; assay type: functional; details: for inhibition of growth at 10 µM: UACC-62, 48 h, read-out: GI
[20] = test system: ACHN; assay: Growth inhibition of human ACHN cells at 10 uM after 48 hrs by single dose SRB assay; assay type: functional
[21] = test system: SN12C; assay: Growth inhibition of human SN12C cells at 10 uM after 48 hrs by single dose SRB assay; assay type: functional; details: for inhibition of growth at 10 µM: read-out: GI
[22] = test system: CAKI-1; assay: Growth inhibition of human Caki1 cells at 10 uM after 48 hrs by single dose SRB assay; assay type: functional; details: for inhibition of growth at 10 µM: CAKI-1, 48 h, read-out: GI
[23] = test system: UO-31; assay: Growth inhibition of human UO31 cells at 10 uM after 48 hrs by single dose SRB assay; assay type: functional; details: for inhibition of growth at 10 µM: UO-31, 48 h, read-out: GI
[24] = test system: OVCAR-3; assay: Growth inhibition of human OVCAR3 cells at 10 uM after 48 hrs by single dose SRB assay; assay type: functional
[25] = test system: OVCAR-8; assay: Growth inhibition of human OVCAR8 cells at 10 uM after 48 hrs by single dose SRB assay; assay type: functional
[26] = test system: NCI/ADR-RES; assay: Growth inhibition of human NCI/ADR-RES cells at 10 uM after 48 hrs by single dose SRB assay; assay type: functional; details: for inhibition of growth at 10 µM: read-out: GI
[27] = test system: PC-3; assay: Growth inhibition of human PC3 cells at 10 uM after 48 hrs by single dose SRB assay; assay type: functional; details: PC-3, 48 h, read-out: GI
[28] = test system: MDA-MB-231; assay: Growth inhibition of human MDA-MB-231 cells at 10 uM after 48 hrs by single dose SRB assay; assay type: functional
[29] = test system: MDA-MB-468; assay: Growth inhibition of human MDA-MB-468 cells at 10 uM after 48 hrs by single dose SRB assay; assay type: functional; details: for inhibition of growth at 10 µM: MDA-MB-468, 48 h, read-out: GI
[30] = test system: HCT166; assay: as §1; assay type: functional
[31] = test system: A498; assay: Growth inhibition of human A498 cells at 10 uM after 48 hrs by single dose SRB assay; assay type: functional; details: A498, 48 h, read-out: GI

Cc1cc(C)n(CC(=O)N2c3ccccc3Sc3ccccc32)n1
inhibition [1]: 22.4%

Cc1c2c(nn1C(=O)CCN1c3ccccc3Sc3ccccc31)CCCC2
inhibition [1]: 0%
inhibition of growth at 10 µM [2]: 12.8%
inhibition of growth at 10 µM [3]: 19.6%
growth inhibition (GI) [4]: inactive
growth inhibition (GI) [5]: inactive
growth inhibition (GI) [6]: inactive
growth inhibition (GI) [7]: inactive
growth inhibition (GI) [8]: inactive
inhibition of growth at 10 µM [9]: 12.4%
growth inhibition (GI) [10]: inactive
growth inhibition (GI) [11]: inactive
growth inhibition (GI) [12]: inactive
inhibition of growth at 10 µM [13]: 8.3%
inhibition of growth at 10 µM [14]: 12.8%
inhibition of growth at 10 µM [15]: 31.6%
inhibition of growth at 10 µM [16]: 9.1%
growth inhibition (GI) [17]: inactive
growth inhibition (GI) [18]: inactive
inhibition of growth at 10 µM [19]: 7.1%
growth inhibition (GI) [20]: inactive
growth inhibition (GI) [21]: inactive
growth inhibition (GI) [22]: inactive
growth inhibition (GI) [23]: inactive
growth inhibition (GI) [24]: inactive
growth inhibition (GI) [25]: inactive
inhibition of growth at 10 µM [26]: 8.2%
inhibition of growth at 10 µM [27]: 13%
growth inhibition (GI) [28]: inactive
inhibition of growth at 10 µM [29]: 11.2%

CCOC(=O)c1cc(-c2ccccc2)nn1CC(=O)N1c2ccccc2Sc2ccccc21
inhibition [1]: 0%

Cc1c2c(nn1C(=O)CCN1c3ccccc3Sc3ccccc31)CCCC2=O
inhibition [1]: 19.5%

Cc1cc(-c2ccccc2)n(CC(=O)N2c3ccccc3Sc3ccccc32)n1
inhibition [1]: 0%

CCOC(=O)c1cc(-c2ccccc2)n(CC(=O)N2c3ccccc3Sc3ccccc32)n1
inhibition [1]: 0%

CCOC(=O)c1cnn(CC(=O)N2c3ccccc3Sc3ccccc32)c1N
inhibition [1]: 24.8%
growth inhibition (GI) [2]: inactive
inhibition of growth at 10 µM [3]: 83.2%
inhibition of growth at 10 µM [4]: 7.6%
growth inhibition (GI) [5]: inactive
inhibition of growth at 10 µM ([6]; SF-295, 48 h, read-out: GI): 6.7%
growth inhibition (GI) [7]: inactive
growth inhibition (GI) [8]: inactive
growth inhibition (GI) [30]: inactive
inhibition of growth at 10 µM [10]: 25.4%
inhibition of growth at 10 µM ([11]; HT-29, 48 h, read-out: GI): 13.2%
growth inhibition (GI) [12]: inactive
inhibition of growth at 10 µM [13]: 5.3%
inhibition of growth at 10 µM [14]: 8.1%
growth inhibition (GI) [15]: inactive
inhibition of growth at 10 µM [16]: 31.9%
growth inhibition (GI) [17]: inactive
inhibition of growth at 10 µM ([18]; SK-MEL-5, 48 h, read-out: GI): 6.9%
inhibition of growth at 10 µM [19]: 6.3%
growth inhibition (GI) [20]: inactive
growth inhibition (GI) [21]: inactive
inhibition of growth at 10 µM [31]: 11.8%
inhibition of growth at 10 µM [22]: 16%
inhibition of growth at 10 µM [23]: 13.3%
growth inhibition (GI) [24]: inactive
growth inhibition (GI) [25]: inactive
growth inhibition (GI) [26]: inactive
inhibition of growth at 10 µM [27]: 21.3%
growth inhibition (GI) [28]: inactive
inhibition of growth at 10 µM [29]: 15.3%

Cc1c2c(nn1CC(=O)N1c3ccccc3Sc3ccccc31)CCCC2
inhibition [1]: 0%
inhibition of growth at 10 µM [2]: 6.5%
growth inhibition (GI) [3]: inactive
inhibition of growth at 10 µM [4]: 20.1%
inhibition of growth at 10 µM ([5]; RPMI-8226, 48 h, read-out: GI): 16.2%
growth inhibition (GI) [6]: inactive
growth inhibition (GI) [7]: inactive
inhibition of growth at 10 µM [8]: 10.2%
inhibition of growth at 10 µM [9]: 8.4%
inhibition of growth at 10 µM [10]: 8%
growth inhibition (GI) [11]: inactive
growth inhibition (GI) [12]: inactive
growth inhibition (GI) [13]: inactive
growth inhibition (GI) [14]: inactive
inhibition of growth at 10 µM [16]: 15.2%
growth inhibition (GI) [17]: inactive
growth inhibition (GI) [18]: inactive
inhibition of growth at 10 µM [19]: 13.2%
growth inhibition (GI) [20]: inactive
inhibition of growth at 10 µM [21]: 5.6%
inhibition of growth at 10 µM [22]: 8.1%
inhibition of growth at 10 µM [23]: 10%
growth inhibition (GI) [24]: inactive
growth inhibition (GI) [25]: inactive
inhibition of growth at 10 µM [26]: 6.2%
growth inhibition (GI) [28]: inactive
growth inhibition (GI) [29]: inactive

Cc1c2c(nn1CC(=O)N1c3ccccc3Sc3ccccc31)CCCC2=O
inhibition [1]: 46.6%

Cc1c2c(nn1C(=O)CN1c3ccccc3Sc3ccccc31)CCCC2
inhibition [1]: 0%

CCOC(=O)C1=NN(C(=O)CN2c3ccccc3Sc3ccccc32)C(O)(c2ccccc2)C1 (configuration not stated)
inhibition [1]: 30.7%

Cc1c2c(nn1C(=O)CN1c3ccccc3Sc3ccccc31)CCCC2=O
inhibition [1]: 0%

CCOC(=O)C1=NN(C(=O)CCN2c3ccccc3Sc3ccccc32)C(O)(c2ccccc2)C1 (configuration not stated)
inhibition [1]: 22.8%

Cc1cc(-c2ccccc2)n(C(=O)CN2c3ccccc3Sc3ccccc32)n1
inhibition [1]: 0%
growth inhibition (GI) [2]: inactive
inhibition of growth at 10 µM [3]: 31.5%
inhibition of growth at 10 µM [4]: 9.6%
growth inhibition (GI) [5]: inactive
growth inhibition (GI) [6]: inactive
growth inhibition (GI) [7]: inactive
inhibition of growth at 10 µM [8]: 9.2%
growth inhibition (GI) [30]: inactive
growth inhibition (GI) [10]: inactive
growth inhibition (GI) [11]: inactive
growth inhibition (GI) [12]: inactive
inhibition of growth at 10 µM [13]: 5%
inhibition of growth at 10 µM [14]: 7.2%
inhibition of growth at 10 µM [15]: 14%
growth inhibition (GI) [16]: inactive
growth inhibition (GI) [17]: inactive
growth inhibition (GI) [18]: inactive
growth inhibition (GI) [19]: inactive
growth inhibition (GI) [20]: inactive
inhibition of growth at 10 µM [21]: 7.2%
inhibition of growth at 10 µM [31]: 17.3%
inhibition of growth at 10 µM [22]: 16.2%
inhibition of growth at 10 µM [23]: 9%
growth inhibition (GI) [24]: inactive
inhibition of growth at 10 µM ([25]; OVCAR-8, 48 h, read-out: GI): 6.3%
growth inhibition (GI) [26]: inactive
inhibition of growth at 10 µM [27]: 13%
growth inhibition (GI) [28]: inactive
growth inhibition (GI) [29]: inactive

N#Cc1cnn(C(=O)CCN2c3ccccc3Sc3ccccc32)c1N
inhibition [1]: 4.7%
